Laboratory results reported in paper PMC3670040, “Structure of Lipid Kinase p110β/p85β Elucidates an Unusual SH2-Domain-Mediated Inhibitory Mechanism” (Molecular Cell, 2011).

Columns and labels:
p110β/p85β-nic = assay: ATPase activity (ADP formation) in the absence of lipid substrate, Transcreener; type: biochemical, mouse; details: absence of lipid substrate; 75 nM protein, 100 μM ATP; 5 μM GDC0941 or D913N mutation; Figure S3B
Procedure: (§1) Figure 1 Inhibition of p110β by p85-Type Regulatory Subunits and Activation of the Complexes by RTK Phosphopeptide (A) Domain organization of p110β and the regulatory subunits p85α, p85β, and p55γ. The color scheme for the domains is used for all figures, unless otherwise stated. […] The inhibition is released upon addition of the 10 μM PDGFR pY2. […] The y axis is expressed as a change in fluorescence polarization (ΔmP), which is obtained by subtracting the observed polarization for the construct at a given enzyme concentration from the maximum fluorescence polarization for that construct. The plateau in these assays arises due to the competitive nature of the ADP detection system, based on displacement of ADP-Alexa 633 tracer from the ADP^2-antibody by ADP generated during the PI3K assay (see Supplemental Experimental Procedures). All measurements were done in triplicates, and the error bars indicate the standard error of the mean (SEM). […]
The lipid kinase activity was determined using the Transcreener ADP2 FP Assay (BellBrook Labs, Madison, WI) according to manufacturer‟s specifications. This non-radioactive assay measures activity by quantitating the amount of ADP formed. The ADP formed by PI3K competes with fluorescent ADP tracer for binding to an anti-ADP antibody, thereby decreasing fluorescence polarization. […]

p110β = assay: Transcreener ADP formation (fluorescence polarization), diC8-PIP2/POPS liposomes, mouse p110β complexes; type: biochemical; details: absence of pY2; ADP formation; Figures 3A, 3B
Procedure: as §1
Figure 3 Mutation Y677A in p85β-cSH2 Releases Inhibitory Effect on p110β (A) Kinase activity (ADP formation) of p110β in a complex with p85β-icSH2-Y677A (Y677A-ic) compared to the wild-type complex (ic) in the absence and presence of 10 μM PDGFR pY2 (ADP formation on the y axis expressed as in Figure 1B). […]
The lipid kinase activity was determined using the Transcreener ADP2 FP Assay (BellBrook Labs, Madison, WI) according to manufacturer‟s specifications. This non-radioactive assay measures activity by quantitating the amount of ADP formed. The ADP formed by PI3K competes with fluorescent ADP tracer for binding to an anti-ADP antibody, thereby decreasing fluorescence polarization. Because of the competitive nature of this assay, the change in fluorescence polarization signal is not a linear function of enzyme activity, and a convenient measure of enzyme activity is the EC50, or the concentration of enzyme necessary to give half-maximal inhibition of labeled ADP binding to the antibody, for a given concentration of substrate and a fixed time of reaction at initial rate. […]

PKB = PKB phosphorylation in transfected HEK cells (Western blot); type: cell-based, human
Procedure: Figure 4 cSH2 Is Important for p110β Inhibition In Vitro and in Cells (A) Kinase activity of human p110β and icSH2 wild-type constructs from three human regulatory subunits (p85α, p85β, and p55γ) in the absence and presence of 10 μM PDGFR pY2 (y axis as in Figure 1B). EC50s for wild-type and icSH2 tyrosine mutants, in the absence and presence of 10 μM PDGF pY2, are shown. (B) Western blots of HEK cells transiently expressing wild-type and mutant human p110β/p85α. The membrane was probed with antibodies against PKB, pPKB (pSer473), myc (p110β), FLAG (p85α), and actin. Bar graphs show mean ± SEM (n = 3) of PKB phosphorylation level normalized to wild-type p110β/p85α (WT). The position of the three mutations is mapped on the p110β/p85β structure. TEXT PRINTED IN THE PICTURE: (A) p110β/p85α-ic: EC50 (nM): 3 | (A) p110β/p85α-ic+pY2: EC50 (nM): 0.3 | (A) p110β/p85β-ic: EC50 (nM): 1.2 | (A) p110β/p85β-ic+pY2: EC50 (nM): 0.3 | (A) p110β/p55γ-ic: EC50 (nM): 1.5 | (A) p110β/p55γ-ic+pY2: EC50 (nM): 0.3 | (A) p110β/p85α-ic-Y685A: EC50 (nM): 0.3 | (A) p110β/p85α-ic-Y685A+pY2: EC50 (nM): 0.3 | (A) p110β/p85β-ic-Y683A: EC50 (nM): 0.4 | (A) p110β/p85β-ic-Y683A+pY2: EC50 (nM): 0.3 | (A) p110β/p55γ-ic-Y419A: EC50 (nM): 0.2 | (A) p110β/p55γ-ic-Y419A+pY2: EC50 (nM): 0.2 […]
Figure S4, Related to Figure 4. Tyr-Mutation in cSH2 Activates PI3K Downstream […]
(A) Western blot of HEK cells over-expressing wild-type and mutant human p110β/p85α complexes. Protein kinase B (PKB) phosphorylation (pPKB) levels at residues Ser473 and Thr308 were quantified and normalized WT p110β/p85α (WT).
(B) Quantification of PtdIns(3,4,5)P3 levels in HEK cells over-expressing wild-type and mutant human p110β/p85α complexes. Phospholipids were extracted from cells and PtdIns(3,4,5)P3 and PtdIns(4,5)P2 levels were quantified by mass spectrometry.
PtdIns(3,4,5)P3 / […] for each construct for two separate experiments measured in duplicates. Error bars indicate SEM. […]
The PIP3 lipids produced in PI3K in vitro assays as described above were also measured by a mass-spectrometry based assay (Clark et al.). […]

Compound: CS(=O)(=O)N1CCN(Cc2cc3nc(-c4cccc5[nH]ncc45)nc(N4CCOCC4)c3s2)CC1 [GDC0941, 2-(1H-indazol-4-yl)-6-(4-methanesulfonyl-piperazin-1-ylmethyl)-4-morpholin-4-yl-thieno[3,2-d]pyrimidine]
- inhibition of ATPase activity (p110β/p85β-nic): fully inhibited

Compound: nicSH2-Y677A: p110β complex with regulatory construct containing wild-type nSH2 but mutant cSH2-Y677A
- basal activity versus wild-type complex (p110β): basal activity higher than the wild-type

Compound: p85α-Y685A: full-length human p85α-Y685A cotransfected with human wild-type p110β
- increase in PKB phosphorylation relative to wild-type heterodimer (PKB; HEK293T cells cotransfected with human p110β and p85α mutant, pSer473 mean n = 3, Figures 4B and S4A): 2 fold

Compound: p110β/p85α-N564D: heterodimer carrying somatic p85α mutation N564D
- phosphorylation of PKB Ser473 (PKB; HEK cells, Figure 4B, n = 3): increase in phosphorylation
- phosphorylation of PKB Thr308 (PKB; HEK cells, Figure S4A): increase in phosphorylation
